Where two headings read alike, the source gives them in different places.
Legend:
Type in all cases: cell-based
[1] = system: Methicillin-Susceptible Staphylococcus aureus Isolates; assay: MIC assay (NCCLS broth dilution), MSSA clinical isolates; details: for MIC: read-out: Minimal Inhibitory Concentration
Protocol: (§1) Antibiotics: novobiocin, tetracycline, minocycline, oxacillin, and vancomycin were all purchased from Sigma-Aldrich. Linezolid was obtained from Pfizer, Inc. Novobiocin/tetracycline and novobiocin/minocycline were tested in a 2.5:1 ratio to mimic the serum levels. (Vavra, J. J., 1967, Development of resistance to novobiocin, tetracycline, and novobiocin-tetracycline combinations in Staphylococcus aureus populations, J. Bacteriol 93(3):801). Compounds were tested across a concentration range consisting of 11 two-fold serial dilutions of test agent.
(§2) Stock solutions were prepared in sterile deionized water; novobiocin stock concentration was 1600 μg/mL and all other drugs stock solutions were prepared at 640 μg/mL. The stock solutions were allowed to sit at room temperature for one hour to auto-sterilize prior to use in the test. All compounds were in solution in water. The control agent was vancomycin hydrochloride, Sigma Chemical Lot # 015K0825.
(§3) The test organisms for the assay were 52 MSSA, 52 MRSA, 8 VISA, 7 VISE, and 3 LRSA isolates. Quality control strains included Staphylococcus aureus 0100 (ATCC 29213) and Enterococcus faecalis (ATCC 29212).
(§4) The MIC assay was performed according to published NCCLS guidelines. (National Committee for Clinical Laboratory Standards, Methods for Dilution Antimicrobial Susceptibility Tests for Bacteria that Grow Aerobically; Approved Standard-Sixth Edition, NCCLS Document M7-A6 [ISBN 1-56238-486-4], NCCLS, 940 West Valley Road, Suite 1400, Wayne, Pa. 19087-1898 USA, 2003). The test medium was Mueller Hinton II Broth for all organisms.

[2] = system: Methicillin-Resistant Staphylococcus aureus Isolates; assay: MIC assay (NCCLS broth dilution), MRSA clinical isolates; details: for MIC: read-out: Minimal Inhibitory Concentration
Protocol: as §1, §2, §3, §4

[3] = system: Vancomycin-intermediate Staphylococcus epidermidis Isolates; assay: MIC assay (NCCLS broth dilution), VISE isolates; details: for MIC: read-out: Minimal Inhibitory Concentration
Protocol: as §1, §2, §3, §4

[4] = system: Unconfirmed Vancomycin-intermediate Staphylococcus epidermidis Isolates; assay: MIC assay (NCCLS broth dilution), unconfirmed VISE isolates; details: for MIC: read-out: Minimal Inhibitory Concentration
Protocol: as §1, §2, §3, §4

[5] = system: Enterococcus faecalis (ATCC 29212); assay: MIC assay, quality control strain E. faecalis ATCC 29212; details: ATCC29212, E. faecalis ATCC 29212, repeat runs 22FEB06-09MAR06, combinations at 2.5:1, read-out: Minimal Inhibitory Concentration, quality control
Protocol: as §1, §2, §3, §4

[6] = Staphylococcus aureus, 52 MSSA isolates, combinations at 2.5:1, given as NB/partner
[7] = Staphylococcus aureus, 52 MRSA isolates, combinations at 2.5:1, given as NB/partner

CC(=O)NC[C@H]1CN(c2ccc(N3CCOCC3)c(F)c2)C(=O)O1 [LZD, linezolid]
4 µg/mL: MIC ([1]; Staphylococcus aureus, MSSA isolate 135, 03MAR06) | MIC ([1]; Staphylococcus aureus, MSSA isolate 754, 22FEB06) | MIC ([1]; Staphylococcus aureus, MSSA isolate 754, 24FEB06) | MIC ([1]; Staphylococcus aureus, MSSA isolate 780, 03MAR06) | MIC ([1]; Staphylococcus aureus, MSSA isolate 786, 22FEB06) | MIC ([1]; Staphylococcus aureus, MSSA isolate 789, 24FEB06) | MIC ([1]; Staphylococcus aureus, MSSA isolate 790, 24FEB06) | MIC ([1]; Staphylococcus aureus, MSSA isolate 793, 24FEB06) | MIC ([1]; Staphylococcus aureus, MSSA isolate 794, 24FEB06) | MIC ([1]; Staphylococcus aureus, MSSA isolate 1007, 24FEB06) | MIC ([1]; Staphylococcus aureus, MSSA isolate 1009, 24FEB06) | MIC ([1]; Staphylococcus aureus, MSSA isolate 1663, 03MAR06) | MIC ([1]; Staphylococcus aureus, MSSA isolate 1666, 03MAR06) | MIC ([1]; Staphylococcus aureus, MSSA isolate 1667, 03MAR06) | MIC ([1]; Staphylococcus aureus, MSSA isolate 1668, 03MAR06) | MIC90 [1, 6] | MIC ([2]; Staphylococcus aureus, MRSA isolate 757, 24FEB06) | MIC ([2]; Staphylococcus aureus, MRSA isolate 758, 03MAR06) | MIC ([2]; Staphylococcus aureus, MRSA isolate 758, 24FEB06) | MIC ([2]; Staphylococcus aureus, MRSA isolate 760, 24FEB06) | MIC ([2]; Staphylococcus aureus, MRSA isolate 763, 22FEB06) | MIC ([2]; Staphylococcus aureus, MRSA isolate 765, 22FEB06) | MIC ([2]; Staphylococcus aureus, MRSA isolate 766, 22FEB06) | MIC ([2]; Staphylococcus aureus, MRSA isolate 775, 24FEB06) | MIC ([2]; Staphylococcus aureus, MRSA isolate 887, 24FEB06) | MIC ([2]; Staphylococcus aureus, MRSA isolate 888, 24FEB06) | MIC ([2]; Staphylococcus aureus, MRSA isolate 889, 24FEB06) | MIC ([2]; Staphylococcus aureus, MRSA isolate 1004, 24FEB06) | MIC ([2]; Staphylococcus aureus, MRSA isolate 1136, 22FEB06) | MIC ([2]; Staphylococcus aureus, MRSA isolate 1138, 22FEB06) | MIC ([2]; Staphylococcus aureus, MRSA isolate 1661, 03MAR06) | MIC ([2]; Staphylococcus aureus, MRSA isolate 1730, 24FEB06) | MIC ([2]; Staphylococcus aureus, MRSA isolate 2011, 24FEB06) | MIC90 [2, 7]
2 µg/mL: MIC ([1]; Staphylococcus aureus, MSSA isolate 133, 03MAR06) | MIC ([1]; Staphylococcus aureus, MSSA isolate 134, 03MAR06) | MIC ([1]; Staphylococcus aureus, MSSA isolate 753, 22FEB06) | MIC ([1]; Staphylococcus aureus, MSSA isolate 755, 22FEB06) | MIC ([1]; Staphylococcus aureus, MSSA isolate 756, 03MAR06) | MIC ([1]; Staphylococcus aureus, MSSA isolate 779, 22FEB06) | MIC ([1]; Staphylococcus aureus, MSSA isolate 781, 03MAR06) | MIC ([1]; Staphylococcus aureus, MSSA isolate 782, 22FEB06) | MIC ([1]; Staphylococcus aureus, MSSA isolate 783, 22FEB06) | MIC ([1]; Staphylococcus aureus, MSSA isolate 784, 22FEB06) | MIC ([1]; Staphylococcus aureus, MSSA isolate 785, 22FEB06) | MIC ([1]; Staphylococcus aureus, MSSA isolate 787, 22FEB06) | MIC ([1]; Staphylococcus aureus, MSSA isolate 788, 22FEB06) | MIC ([1]; Staphylococcus aureus, MSSA isolate 791, 24FEB06) | MIC ([1]; Staphylococcus aureus, MSSA isolate 792, 03MAR06) | MIC ([1]; Staphylococcus aureus, MSSA isolate 994, 22FEB06) | MIC ([1]; Staphylococcus aureus, MSSA isolate 995, 03MAR06) | MIC ([1]; Staphylococcus aureus, MSSA isolate 996, 22FEB06) | MIC ([1]; Staphylococcus aureus, MSSA isolate 997, 22FEB06) | MIC ([1]; Staphylococcus aureus, MSSA isolate 998, 03MAR06) | MIC ([1]; Staphylococcus aureus, MSSA isolate 999, 22FEB06) | MIC ([1]; Staphylococcus aureus, MSSA isolate 1000, 24FEB06) | MIC ([1]; Staphylococcus aureus, MSSA isolate 1001, 24FEB06) | MIC ([1]; Staphylococcus aureus, MSSA isolate 1002, 24FEB06) | MIC ([1]; Staphylococcus aureus, MSSA isolate 1003, 03MAR06) | MIC ([1]; Staphylococcus aureus, MSSA isolate 1005, 24FEB06) | MIC ([1]; Staphylococcus aureus, MSSA isolate 1006, 24FEB06) | MIC ([1]; Staphylococcus aureus, MSSA isolate 1008, 24FEB06) | MIC ([1]; Staphylococcus aureus, MSSA isolate 1131, 24FEB06) | MIC ([1]; Staphylococcus aureus, MSSA isolate 1132, 03MAR06) | MIC ([1]; Staphylococcus aureus, MSSA isolate 1133, 24FEB06) | MIC ([1]; Staphylococcus aureus, MSSA isolate 1134, 24FEB06) | MIC ([1]; Staphylococcus aureus, MSSA isolate 1654, 03MAR06) | MIC ([1]; Staphylococcus aureus, MSSA isolate 1656, 03MAR06) | MIC ([1]; Staphylococcus aureus, MSSA isolate 1662, 03MAR06) | MIC ([1]; Staphylococcus aureus, MSSA isolate 1671, 03MAR06) | MIC50 [1, 6] | MIC ([2]; Staphylococcus aureus, MRSA isolate 760, 03MAR06) | MIC ([2]; Staphylococcus aureus, MRSA isolate 767, 22FEB06) | MIC ([2]; Staphylococcus aureus, MRSA isolate 768, 22FEB06) | MIC ([2]; Staphylococcus aureus, MRSA isolate 769, 22FEB06) | MIC ([2]; Staphylococcus aureus, MRSA isolate 770, 22FEB06) | MIC ([2]; Staphylococcus aureus, MRSA isolate 771, 22FEB06) | MIC ([2]; Staphylococcus aureus, MRSA isolate 772, 22FEB06) | MIC ([2]; Staphylococcus aureus, MRSA isolate 773, 24FEB06) | MIC ([2]; Staphylococcus aureus, MRSA isolate 774, 24FEB06) | MIC ([2]; Staphylococcus aureus, MRSA isolate 776, 24FEB06) | MIC ([2]; Staphylococcus aureus, MRSA isolate 777, 24FEB06) | MIC ([2]; Staphylococcus aureus, MRSA isolate 778, 24FEB06) | MIC ([2]; Staphylococcus aureus, MRSA isolate 886, 24FEB06) | MIC ([2]; Staphylococcus aureus, MRSA isolate 1010, 22FEB06) | MIC ([2]; Staphylococcus aureus, MRSA isolate 1012, 22FEB06) | MIC ([2]; Staphylococcus aureus, MRSA isolate 1013, 22FEB06) | MIC ([2]; Staphylococcus aureus, MRSA isolate 1014, 22FEB06) | MIC ([2]; Staphylococcus aureus, MRSA isolate 1015, 22FEB06) | MIC ([2]; Staphylococcus aureus, MRSA isolate 1016, 22FEB06) | MIC ([2]; Staphylococcus aureus, MRSA isolate 1017, 22FEB06) | MIC ([2]; Staphylococcus aureus, MRSA isolate 1021, 22FEB06) | MIC ([2]; Staphylococcus aureus, MRSA isolate 1022, 22FEB06) | MIC ([2]; Staphylococcus aureus, MRSA isolate 1023, 22FEB06) | MIC ([2]; Staphylococcus aureus, MRSA isolate 1024, 22FEB06) | MIC ([2]; Staphylococcus aureus, MRSA isolate 1025, 22FEB06) | MIC ([2]; Staphylococcus aureus, MRSA isolate 1135, 22FEB06) | MIC ([2]; Staphylococcus aureus, MRSA isolate 1137, 22FEB06) | MIC ([2]; Staphylococcus aureus, MRSA isolate 1222, 03MAR06) | MIC ([2]; Staphylococcus aureus, MRSA isolate 1222, 24FEB06) | MIC ([2]; Staphylococcus aureus, MRSA isolate 1653, 03MAR06) | MIC ([2]; Staphylococcus aureus, MRSA isolate 1658, 03MAR06) | MIC ([2]; Staphylococcus aureus, MRSA isolate 1659, 03MAR06) | MIC ([2]; Staphylococcus aureus, MRSA isolate 1729, 03MAR06) | MIC ([2]; Staphylococcus aureus, MRSA isolate 2009, 24FEB06) | MIC ([2]; Staphylococcus aureus, MRSA isolate 2010, 24FEB06) | MIC50 [2, 7] | MIC ([3]; Staphylococcus epidermidis, VISE isolate 2020, 09MAR06) | MIC ([3]; Staphylococcus epidermidis, VISE isolate 2022, 03MAR06) | MIC ([3]; Staphylococcus epidermidis, VISE isolate 2023, 03MAR06) | MIC50 ([3]; Staphylococcus epidermidis, 4 VISE isolates, combinations at 2.5:1) | MIC ([4]; Staphylococcus epidermidis, Unconfirmed VISE isolate 2026, 03MAR06) | MIC [5]
1 to 2 µg/mL: MIC Range ([3]; 4 VISE isolates, combinations at 2.5:1) | MIC Range ([4]; 3 unconfirmed VISE isolates, combinations at 2.5:1)
2 to 4 µg/mL: MIC Range ([2]; 52 MRSA isolates, combinations at 2.5:1, given as NB/partner)
1 µg/mL: MIC ([1]; Staphylococcus aureus, MSSA isolate 1728, 03MAR06) | MIC ([1]; Staphylococcus aureus, MSSA isolate 1728, retest 09MAR06) | MIC ([3]; Staphylococcus epidermidis, VISE isolate 2021, 09MAR06) | MIC ([4]; Staphylococcus epidermidis, Unconfirmed VISE isolate 2024, 09MAR06) | MIC ([4]; Staphylococcus epidermidis, Unconfirmed VISE isolate 2025, 09MAR06) | MIC50 ([4]; Staphylococcus epidermidis, 3 unconfirmed VISE isolates, combinations at 2.5:1)
1 to 4 µg/mL: MIC Range ([1]; 52 MSSA isolates, Mueller Hinton II Broth, combinations at 2.5:1, given as NB/partner)
